Values quoted from earlier work as cited in patent US12691101B2, “Compound and method for preventing or treating of respiratory diseases comprising the same as an active ingredient” (YONSEI UNIVERSITY, UNIVERSITY - INDUSTRY FOUNDATION (UIF), priority 2019, dated 2026).

Test system: HBE cells
Conditions: IL-13-treated HBE cells; cited from earlier work

Q: With Cn1nc(COc2cccc(F)c2)c2c1CCN(C(=O)Nc1ccc(Cl)cc1)C2 [PDSinh-A01] as the molecule, how does the ASL depth read?
A: significantly increased
